Earlier results, collected in patent publication US20110105443A1, “SALTS OF MEMANTINE AND COX-INHIBITORS AND THEIR CRYSTAL FORM IN THE TREATMENT OF PAIN” (LABORATORIES DEL DR. ESTEVE, S.A., priority 2008, published 2011).

Conditions: stated property of the free drug (base or acid), no method given

**Q.** For CC(=O)Oc1cc(C(F)(F)F)ccc1C(=O)O [Triflusal, 2-acetoxy-4-trifluoromethyl-benzoic acid], which pKa is on record?
**A.** 3.34
